Experimental data reported in US8962664B2, “Selective glycosidase inhibitors and uses thereof” (Simon Fraser University, priority 2006, dated 2015).
Values joined by “and” are separate entries in the source; they are usually repeats but may differ in a detail not shown here. Equal values may be shown once.

Columns and labels:
Assay type in all cases: in vivo, Sprague-Dawley rats
[1] = system: O-GlcNAc levels in cardiac tissue; experiment: Elevation of rat cardiac O-GlcNAc levels (IV); details: rats, IV 50 mg/kg, 0 to 20 h, Western blot
Description: The effect of intravenous (IV) administration of (3aR,5R,6S,7R,7aR)-2-(ethylamino)-5-(hydroxymethyl)-5,6,7,7a-tetrahydro-3aH-pyrano[3,2-d]thiazole-6,7-diol (Compound 25, hereinafter referred to as NAG-AE) on O-GlcNAc levels in cardiac tissue in Sprague-Dawley rats was measured. Animals were obtained from Charles-River as 5-week old healthy male Sprague-Dawley rats. Animals were given one week to acclimatize and at six weeks of age the appropriate treatment was initiated. Nine animals were given intravenous tail vein injections of 50 mg/kg NAG-AE; following injection, one animal was sacrificed at each of the following time points: 0, 1, 2, 4, 7, 10, 13, 16, and 20 h. In addition, one animal was given an injection of vehicle (PBS—pH 7.4) and sacrificed two hours later for use as a control. Tissues were removed from sacrificed animals as quickly as possible to minimize post-mortem delay. The hearts from each animal were immediately frozen in liquid nitrogen and stored at −80° C. until further use. Homogenization of the cardiac tissue was carried out by manual grinding followed by homogenization in cell lysis buffer (50 mM Tris, pH 8.0, 1 mM PMSF, 0.1% NP-40, 1 mM NAG-Bt) using a tissue homogenizer (IKA) at 4° C. Insoluble cell debris was removed by centrifugation at 17,900×g for 20 minutes at 4° C. and the resulting supernatant was stored at −20° C. until use. […]

[2] = Eight-month repeat dose toxicology study in rats: hematology (CBC) and serum chemistry
Description: (§1) The toxicological effects of repeated oral administration of (3aR,5R,6S,7R,7aR)-5-(hydroxymethyl)-2-propyl-5,6,7,7a-tetrahydro-3aH-pyrano[3,2-d]thiazole-6,7-diol (NAG-Bt) to Sprague-Dawley rats over eight months was measured. All animals were obtained from Charles-River as 5-week old healthy male Sprague-Dawley rats. Animals were given one week to acclimatize and at six weeks of age the appropriate treatment was initiated. Eight animals were fed food containing 100 mg/kg/day of NAG-Bt for eight months. Eight additional animals fed with food containing no inhibitor were used as controls. […] After four months of dosing, blood and urine samples were collected from four rats in each group.

[3] = Eight-month repeat dose toxicology study in rats: urinalysis
Description: as §1

[4] = rat, in vivo, po, 100 mg/kg/day

With `CCNC1=N[C@@H]2[C@@H](O)[C@H](O)[C@@H](CO)O[C@@H]2S1` [NAG-AE, (3aR,5R,6S,7R,7aR)-2-(ethylamino)-5-(hydroxymethyl)-5,6,7,7a-tetrahydro-3aH-pyrano[3,2-d]thiazole-6,7-diol] the “O-GlcNAc levels in cardiac tissue” value [1] was “time-dependent elevation”.

Work on `CCCC1=N[C@@H]2[C@@H](O)[C@H](O)[C@@H](CO)O[C@@H]2S1` [NAG-Bt, (3aR,5R,6S,7R,7aR)-5-(hydroxymethyl)-2-propyl-5,6,7,7a-tetrahydro-3aH-pyrano[3,2-d]thiazole-6,7-diol] yielded an ALT [2, 4] of 109.3 iu/l, an AST [2, 4] of 202.3 iu/l and an Albumin [2, 4] of 47.8 g/L. For the same compound, the Albumin/Globulin [2, 4] was 1.6, the Alkaline phsphatase [2, 4] was 168.3 iu/l and the Anion Gap [2, 4] was 29.8 mM. The Bilirubin total [2, 4] was 0.0 µM, the “Blood Urea Nitrogen” value [2, 4] was 8.9 mM and the Calcium [2, 4] was 2.7 mM. For the same compound, the “Carbon Dioxide” value [2, 4] was 17.5 mM, the Chloride [2, 4] was 104.5 mM and the Cholesterol [2, 4] was 2.9 mM. The “Creatine Phosphokinase” value [2, 4] was 1324.5 iu/l, the Creatinine [2, 4] was 29.0 µM and the Gamma gt [2, 4] was 17.5 iu/l. The Globulin [2, 4] was 30.3 g/L, the Glucose [2, 4] was 2.0 mM and the Hematocrit [2, 4] was 0.5 l/l. The Hemoglobin [2, 4] was 169.5 g/L, the Lymphs % [2, 4] was 82.3% and the “Mean Corp Hemoglobin” value [2, 4] was 16.9 pg. The “Mean Corp Vol.” value [2, 4] was 53.3 fL, the “Mean Platelet Vol” value [2, 4] was 9.3 fL and the Monocytes % [2, 4] was 4.3%. For the same compound, the “Nonesterified Fatty Acids” value [2, 4] was 1.8 mM, the Osmolality [2, 4] was 292.9 mmol/kg and the Phosphorus [2, 4] was 2.2 mM. The Platelet cnt [2, 4] was 561.8 10e9/L, the Polys % [2, 4] was 10.8% and the Potassium [2, 4] was 5.9 mM. The RDW [2, 4] was 17.4, the Red cell cnt [2, 4] was 10.1 10^12/L and the Sodium [2, 4] was 145.8 mM. The “Sorbitol Dehydrogenase” value [2, 4] was 22.3 iU/L, the “Total Protein” value [2, 4] was 78.0 g/L and the Triglyceride [2, 4] was 2.7 mM. The White cell cnt [2, 4] was 3.8 1e9/l, the “hematology (CBC), serum chemistry and urinalysis: differences between groups” value [2, 4] was “no statistically significant differences” and the “changes in ALT, AST, bilirubin or sorbitol dehydrogenase (liver toxicity)” value ([2]; rats, oral 100 mg/kg/day, four months) was “no changes”. The “Urine Bilirubin” value [3, 4] was “neg”, the “Urine Color” value [3, 4] was “Yellow” and the “Urine Crystals” value [3, 4] was “PO4”. The “Urine Crystals Amount” value [3, 4] was “Many”, the “Urine Epith” value [3, 4] was “neg” and the “Urine Glucose” value [3, 4] was “neg”. For the same compound, the “Urine Gran Cast” value [3, 4] was “neg”, the “Urine Hyal cast” value [3, 4] was “neg” and the “Urine RBC Cast” value [3, 4] was “neg”. For the same compound, the “Urine Urobil” value [3, 4] was “Norm” and the “Urine Bacteria” value ([3]; rats dosed orally for 4 months at 100 mg/kg/day, individual treated rats) was “Mod- and neg (2×)”.
